Measurements taken from patent publication US9790218B2, “Small molecule activators of calcium-activated chloride channels and methods of use” (The Regents of the University of California, priority 2011, dated 2017).

System: human bronchi submucosal glands
Experiment: Airway submucosal gland fluid secretion in human bronchi
Settings: 30 μM T16Ainh-A01
Method: FIG. 6A-C. Airway submucosal gland fluid secretion in human bronchi. FIG. 6A. TMEM16A immunohistochemistry in CF (left) and non-CF (right) human bronchi showing apical membrane expression in serous gland epithelial cells (arrows). Scale bar: 20 μm. FIG. 6B. Mucous (fluid) secretion in human bronchi. (top) Images of mucus bubbles formed under oil in response to basolateral application of 300 nM carbachol (CCh) and 20 μM Eact. TMEM16A was inhibited by 30 μM T16Ainh-A01. Individual fluid bubbles marked with arrowheads. Scale bar: 0.5 mm. (bottom) CCh and Eact-induced secretion rates. Where indicated, tissues were pre-treated with T16Ainh-A01 (30 μM). Each point is the average of measurements made from 20 glands (mean±S.E. * P<0.05). FIG. 6C. Summary of human gland fluid secretion rates measured at 20 min after addition of 20 μM Eact, and 30 min after application of 300 nM carbachol (CCh) and 10 μM forskolin (20-66 glands from 3 tracheas and 4 bronchus). In CF-bronchi, 6 glands from one donor were stimulated by Eact. […]
Similar staining was found in non-CF and CF human bronchi. Fluid secretion was measured in individual submucosal glands from the increasing size of mucus (fluid) bubbles in which airway fragments were mounted in a 37° C. perfusion chamber and the mucosal solution was covered with oil.

## CCc1c(C)nc(SCC(=O)Nc2nc(-c3ccc(OC)cc3)cs2)[nH]c1=O [T16Ainh-A01, reference compound]
  effect of pre-treatment on gland fluid secretion: abolished basal and agonist-stimulated gland fluid secretion
